Test results: US12133530B2, “Herbicidal mixtures comprising L-glufosinate or its salt and at least one VLCFA inhibitor” (BASF SE, priority 2017, dated 2024)

Assays:
[1] = test system: ABUTH (Abutilon theophrasti); assay: Post-emergence greenhouse pot test, herbicidal activity (scale 0 to 100); type: in vivo
Description: (§1) However, the weed control afforded by the compounds, mixtures or compositions is not limited to these species. The analysis of synergism or antagonism between the mixtures or compositions was determined using Colby's equation.
(§2) The culture containers used were plastic flowerpots containing loamy sand with approximately 3.0% of humus as the substrate. The seeds of the test plants were sown separately for each species and/or resistant biotype. For the pre-emergence treatment, the active ingredients, which had been suspended or emulsified in water, were applied directly after sowing by means of finely distributing nozzles. The containers were irrigated gently to promote germination and growth and subsequently covered with transparent plastic hoods until the plants had rooted. This cover caused uniform germination of the test plants, unless this had been impaired by the active ingredients. For the post-emergence treatment, the test plants were first grown to a height of 3 to 15 cm, depending on the plant habit, and only then treated with the active ingredients which had been suspended or emulsified in water. For this purpose, the test plants were either sown directly and grown in the same containers, or they were first grown separately as seedlings and transplanted into the test containers a few days prior to treatment. Depending on the species, the plants were kept at 10-25° C. or 20-35° C., respectively. The test period extended to 20 days after treatment. During this time, the plants were tended, and their response to the individual treatments was evaluated. The evaluation was carried out by using a scale from 0 to 100. 100 means no emergence of the plants or complete destruction of at least the above-ground parts, and 0 means no damage, or normal course of growth. Data shown are the mean of two replications.

AVEFA (Avena fatua) = assay: as above; type: in vivo; conditions: scale 0-100
Description: as §1, §2

Question: Which results are given for `CP(=O)(O)CC[C@H](N)C(=O)O` [L-Glufosinate, (2S)-2-amino-4-[hydroxy(methyl)phosphinoyl]butyric acid]?
Answer: Herbicidal activity against ABUTH, Found ([1]; L-Glufosinate 75 g ai/ha alone, scale 0-100): 0; Herbicidal activity against ABUTH, Found ([1]; L-Glufosinate 150 g ai/ha alone, scale 0-100): 55; Herbicidal activity against ABUTH, Found ([1]; L-Glufosinate 200 g ai/ha alone, scale 0-100, mean of two replications): 65; Herbicidal activity against AVEFA, Found (AVEFA (Avena fatua); L-Glufosinate 75 g ai/ha alone): 0; Herbicidal activity against AVEFA, Found (AVEFA (Avena fatua); L-Glufosinate 150 g ai/ha alone): 0

Question: For `CCOCCN(C(=O)CCl)C(=C(C)C)c1ccccc1` [Pethoxamid, pethoxamid], which “Herbicidal activity against ABUTH, Found” value ([1]; Pethoxamid 50 g ai/ha alone, scale 0-100) is on record?
Answer: 0

Question: What about the “Herbicidal activity against ABUTH, Found” value ([1]; Pethoxamid 100 g ai/ha alone, scale 0-100) of the same compound?
Answer: 0

Question: What about the “Herbicidal activity against AVEFA, Found” value (AVEFA (Avena fatua); Pethoxamid 50 g ai/ha alone) of the same compound?
Answer: 0

Question: And the “Herbicidal activity against AVEFA, Found” value (AVEFA (Avena fatua); Pethoxamid 100 g ai/ha alone)?
Answer: 0

Question: Which results are given for `Cn1nc(C(F)(F)F)c(CS(=O)(=O)C2=NOC(C)(C)C2)c1OC(F)F` [Pyroxasulfone, pyroxasulfone]?
Answer: Herbicidal activity against ABUTH, Found ([1]; Pyroxasulfone 25 g ai/ha alone, scale 0-100): 40; Herbicidal activity against ABUTH, Found ([1]; Pyroxasulfone 50 g ai/ha alone, scale 0-100): 70
